# Read-outs that look alike come from different tables or passages of the source. Square brackets hold non-standard residues; d marks the D form. Peptide text beside a SMILES is read from it. * marks the point of attachment. Dolaproine = CO[C@@H]([C@@H]1CCCN1)[C@@H](C)C(=O)O; Dil = CC[C@H](C)[C@H](NC)[C@@H](CC(=O)O)OC; X1 = C[C@@H](N*)[C@@H](O)c1ccccc1; NMeV = CN[C@H](C(=O)O)C(C)C
# Assays:
# [1] = system: Co-culture SK-BR3:MDA-MB-468 = 1:1; experiment: Bystander effect experiment, co-culture; details: for viability at 0.001 µM: Homo sapiens, 144 h, read-out: Cell viability (%) Co-culture (SK-BR3:MDA-MB-468 = 1:1); for Cell viability (%) Co-culture (SK-BR3:MDA-MB-468 = 1:1): single concentration of 1 nM, 144 hours, SRB
# Procedure: (§1) The cell proliferation inhibitory activity of the drugs and ADC presented in Table 4 below on cancer cell lines was measured. The SK-BR3 human breast cancer cell line (procured from Korea Cell Line Bank (KCLB)) was used as a HER2-positive cell line, and the MDA-MB-468 human triple-negative breast cancer cell line (procured from ATCC) was used as a HER2-negative cell line. […] All ADCs used in the experiment were anti-HER2 ADCs. In a 96-well plate, 6,000 SK-BR3, 6,000 MDA-MB-468, or 3,000 SK-BR3 and 3,000 MDA-MB-468 per well were seeded together, cultured for 24 hours, and then treated with each drug and ADC at a single concentration of 1 nM. After 144 hours, the number of viable cells was quantified using SRB (Sulforhodamine B) dye.
# [2] = Rat pre-tox experiment (single dose toxicity); format: in vivo, SD rats; details: single tail vein dose; for inhibition of weight gain: SG2057 statement for 0.02 mg/kg and 0.04 mg/kg groups
# Procedure: Twenty one 8-week-old male SD rats were divided into 7 groups of 3 rats each, the test material was administered thereto through the tail vein at 2 mL/kg one time, and the weight/death/clinical symptoms and the like thereof were observed. The body weight was measured two times a week, and death and clinical symptoms were observed daily. Four weeks after administration, planned slaughter was performed to examine the gross findings of organs. The results are as illustrated in FIG. 3.
# [3] = system: MCF-7 (HER2 negative to normal); experiment: In vitro cytotoxicity (cell proliferation inhibition, SRB), MCF-7; format: cell-based; details: Homo sapiens
# Procedure: (§2) The cell proliferation inhibitory activity of the drugs and ADCs presented in Tables 2 and 3 below on cancer cell lines was measured. As the cancer cell lines, commercially available human breast cancer cell lines MCF-7 (HER2 negative to normal), SK-BR3 (HER2 positive), and JIMT-1 (HER2 positive) were used. […] In a 96-well plate, 5,000 SK-BR3, 5,000 MCF-7, and 2,500 JIMT-1 per well were seeded, cultured for 24 hours, and then treated with ADCs at a concentration of 25 fM to 10 nM (5-fold serial dilutions) and drugs at a concentration of 25 fM to 10 nM (5-fold serial dilutions) or 1 fM to 100 nM (10-fold serial dilutions).
# [4] = system: JIMT-1 (HER2 positive); experiment: In vitro cytotoxicity (cell proliferation inhibition, SRB), JIMT-1; format: cell-based; details: Homo sapiens
# Procedure: as §2
# [5] = system: SK-BR3 human breast cancer cell line (HER2-positive); experiment: Bystander effect experiment, SK-BR3 alone; details: for viability at 0.001 µM: Homo sapiens, SK-BR-3, 144 h, read-out: Cell viability (%) SK-BR3; for Cell viability (%) SK-BR3: single concentration of 1 nM, 144 hours, SRB
# Procedure: as §1
# [6] = system: SK-BR3 (HER2 positive); experiment: In vitro cytotoxicity (cell proliferation inhibition, SRB), SK-BR3; format: cell-based; details: Homo sapiens
# Procedure: as §2
# [7] = system: MDA-MB-468 human triple-negative breast cancer cell line (HER2-negative); experiment: Bystander effect experiment, MDA-MB-468 alone; details: for viability at 0.001 µM: Homo sapiens, MDA-MB-468, 144 h, read-out: Cell viability (%) MDA-MB-468; for Cell viability (%) MDA-MB-468: single concentration of 1 nM, 144 hours, SRB
# Procedure: as §1
# [8] = system: Co-culture SK-BR3:MDA-MB-468 = 1:1; details: free toxin control materials; cited from earlier work
# [9] = first of three dose groups (dose not given)
# [10] = second of three dose groups (apparently 0.02 mg/kg)
# [11] = third of three dose groups (apparently 0.04 mg/kg)
# [12] = MCF7, 144 h, read-out: IC50 (nM) MCF7, pyrrolobenzodiazepine derivatives (free drugs), 144 hours, SRB
# [13] = JIMT-1, 144 h, read-out: IC50 (nM) JIMT-1, pyrrolobenzodiazepine derivatives (free drugs), 144 hours, SRB
# [14] = SK-BR-3, 144 h, read-out: IC50 (nM) SK-BR3, pyrrolobenzodiazepine derivatives (free drugs), 144 hours, SRB
compound,measurement,setting,value
C=C1CC2CNc3cc(OCc4cc(COc5cc6c(cc5OC)C(=O)N5CC(=C)C[C@H]5CN6)cc(OCCOCCOCCOCC(=O)O)c4)c(OC)cc3C(=O)N2C1 (some centres unmarked) [Compound 32],viability at 0.001 µM,[1],98%
same,bystander effect,[1]; conclusion from mono- and co-culture viability at 1 nM,do not exhibit a bystander effect
same,body weight at end of 4th week as compared to body weight at time of administration,[2]; [9],171%
same,body weight at end of 4th week as compared to body weight at time of administration,[2]; [10],164%
same,inhibition of weight gain,[2],very insignificant
same,body weight at end of 4th week as compared to body weight at time of administration,[2]; [11],161%
same,IC50,"[3]; MCF7, pyrrolobenzodiazepine derivatives (free drugs), 144 hours, SRB, read-out: IC50 (nM) MCF7",> 100 nM
same,IC50,"[4]; JIMT-1, pyrrolobenzodiazepine derivatives (free drugs), 144 hours, SRB, read-out: IC50 (nM) JIMT-1",> 100 nM
same,viability at 0.001 µM,[5],98%
same,IC50,"[6]; SK-BR-3, pyrrolobenzodiazepine derivatives (free drugs), 144 hours, SRB, read-out: IC50 (nM) SK-BR3",18.2 nM
same,viability at 0.001 µM,[7],101%
C=C1C[C@H]2C=Nc3cc(OCc4cc(COc5cc6c(cc5OC)C(=O)N5CC(=C)C[C@H]5C=N6)cc(OCCOCCOCCOCC(=O)OC)c4)c(OC)cc3C(=O)N2C1 [Compound 33],IC50,[3]; [12],> 100 nM
same,IC50,[4]; [13],> 100 nM
same,IC50,[6]; [14],> 100 nM
C=C1C[C@H]2C=Nc3cc(OCc4cc(COc5cc6c(cc5OC)C(=O)N5CC(=C)C[C@H]5C=N6)cc(OCCOCCOCCOCC(=O)NC(CC(=O)O)CC(=O)O)c4)c(OC)cc3C(=O)N2C1 [Compound 52],IC50,[3]; [12],> 100 nM
same,IC50,[4]; [13],> 100 nM
same,IC50,[6]; [14],> 100 nM
C=C1C[C@H]2C=Nc3cc(OCc4cc(COc5cc6c(cc5OC)C(=O)N5CC(=C)C[C@H]5C=N6)cc(OCCOCCOCCOCC(=O)NC(CC(=O)OC)CC(=O)OC)c4)c(OC)cc3C(=O)N2C1 [Compound 53],IC50,[3]; [12],11.8 nM
same,IC50,[4]; [13],8.93 nM
same,IC50,[6]; [14],2.52 nM
CC[C@H](C)[C@@H]([C@@H](CC(=O)N1CCC[C@H]1[C@H](OC)[C@@H](C)C(=O)N[C@H](C)[C@@H](O)c1ccccc1)OC)N(C)C(=O)[C@@H](NC(=O)[C@@H](NC)C(C)C)C(C)C [MMAE] (H-[NMeV]V[Dil][Dolaproine]-X1),Cell viability (%) Co-culture (SK-BR3:MDA-MB-468 = 1:1),[1],12%
same,bystander effect (already known),[8],known to exhibit a bystander effect
same,Cell viability (%) SK-BR3,[5],12%
same,Cell viability (%) MDA-MB-468,[7],14%
CC[C@H](C)[C@@H]([C@@H](CC(=O)N1CCC[C@H]1[C@H](OC)[C@@H](C)C(=O)N[C@@H](Cc1ccccc1)C(=O)O)OC)N(C)C(=O)[C@@H](NC(=O)[C@@H](NC)C(C)C)C(C)C [MMAF] (H-[NMeV]V[Dil][Dolaproine]F-OH),Cell viability (%) Co-culture (SK-BR3:MDA-MB-468 = 1:1),[1],99%
same,bystander effect (already known),[8],known to exhibit no bystander effect
same,Cell viability (%) SK-BR3,[5],101%
same,Cell viability (%) MDA-MB-468,[7],105%
C=C1C[C@H]2C=Nc3cc(OCCCCCOc4cc5c(cc4OC)C(=O)N4CC(=C)C[C@H]4C=N5)c(OC)cc3C(=O)N2C1 [SG2057],viability at 0.001 µM,[1],6%
same,body weight at end of 4th week as compared to body weight at time of administration,[2]; [9],167%
same,body weight at end of 4th week as compared to body weight at time of administration,[2]; [10],148%
same,inhibition of weight gain,[2],significantly inhibited weight gain
same,body weight at end of 4th week as compared to body weight at time of administration,[2]; [11],115%
same,IC50,"[3]; MCF7, 144 h, read-out: IC50 (nM) MCF7, comparison of anti-HER2 ADCs, 144 hours, SRB",0.06 nM
same,IC50,[3]; [12],0.05 nM
same,IC50,"[4]; JIMT-1, 144 h, read-out: IC50 (nM) JIMT-1, comparison of anti-HER2 ADCs, 144 hours, SRB",0.05 nM
same,IC50,[4]; [13],0.04 nM
same,viability at 0.001 µM,[5],7%
same,IC50,"[6]; SK-BR-3, 144 h, read-out: IC50 (nM) SK-BR3, comparison of anti-HER2 ADCs, 144 hours, SRB",0.02 nM
same,IC50,[6]; [14],0.01 nM
same,viability at 0.001 µM,[7],4%

# Source: US20220096641A1, “PYRROLOBENZODIAZEPINE DIMER COMPOUND WITH IMPROVED SAFETY AND USE THEREOF” (priority 2019, published 2022)
